Results: US20100086931A1, “METHOD FOR ASSAYING ACTION OF ANTITUMOR AGENT USING DECREASE IN GENE EXPRESSION LEVEL AS INDEX” (Eisai R&D Management Co., Ltd., priority 2007, published 2010)

Test system: human colon carcinoma cell strain WiDr
Assay: Microarray analysis (Human Genome U133 plus 2.0 array) of mRNA expression in WiDr cells treated with compound A
Format: cell-based
Conditions: 2.8 nM, 6 h, ratio to control
Description: Microarray analysis (Human Genome U133 plus 2.0 array: Affymetrix) was carried out using RNA purified from human colon carcinoma cell strain WiDr treated with 2.8 nM and 14 nM of (8E,12E,14E)-7-((4-Cycloheptylpiperazin-1-yl)carbonyl)oxy-3,6,16,21-tetrahydroxy-6,10,12,16,20-pentamethyl-18,19-epoxytricosa-8,12,14-trien-11-olide (hereinafter also referred to as “compound A”) for six hours.
WiDr cells were first suspended in RPMI1640 medium (containing 10% FBS, penicillin, and streptomycin) and seeded in a 10 cm dish (2×10^6 cells/dish). After an overnight culture in an incubator with 5% carbon dioxide gas at 37° C., the medium was changed with medium containing 2.8 nM and 14 nM of compound A or containing vehicle alone. After cultured additional six hours, TRI reagent (SIGMA) was added to cells, and the cells were harvested. RNA was purified in accordance with the protocol of TRI reagent, followed by further purification with RNeasy (QIAGEN). Absorbance at 260 nm was measured to quantify an amount of RNA.
Subsequently, single stranded cDNA synthesis, double stranded cDNA synthesis, biotin-labeled cRNA synthesis, and cRNA fragmentation in order were carried out from 5-10 μg (WiDr 10 μg, PBMC 5 μg) of total RNA from the control cells and the treated cells, by using One-Cycle Target Labeling and Control Reagents (Affymetrix). cRNA probe was used for hybridization with Human Genome U133 Plus 2.0 Array (Affymetrix). The array was then washed and stained, and luminescence intensity was measured by a scanner.
The RMA method was applied to 33 of .cel files obtained in the microarray experiment and log signal intensity at a gene level normalized with log signal intensity at a probe level was obtained. By subtracting the mean between control 1 and control 3 from the mean between log signal intensity 1 and log signal intensity 3 for each case, the log signal intensity was converted into a log signal ratio to the control. A t-test was conducted between each log signal intensity and control, and candidate genes were narrowed down in the basis of a p-value, a log signal ratio, and a signal value. Specifically, genes showing that the P value was 5% or less; the expression level in the untreated (control) is 100 or more by signal value; and the expression level when treated with both 2.8 nM and 14 nM of compound A is, compared to the control, 25% or less, were picked out. The software used is R2.2.1 (http://www.r-project.org/), affy package 1.8.1 (http://www.bioconductor.org).
Genes showing that, by the treatment with compound A, the P value was 5% or less; the expression level in the untreated (control) is 100 or more by signal value; and the expression level when treated with both 2.8 nM and 14 nM of compound A is, compared to the control, 25% or less, and results thereof were shown in Table 1. Probe ID used in Table 1 represents Human Genome U133 Plus 2.0 Array Probeset ID. In Table 1, for each gene evaluated, gene name (Gene Name), abbreviated name (Gene Symbol), accession number (Accession), alias name (Synonym), Probe set number in Human Genome U133 Plus 2.0 Array (Human Genome U133 Plus 2.0 Array Probeset ID), the expression level upon the six-hour treatment with 2.8 nM of E7107 (2.8 nM (6 h)), and the expression level upon the six-hour treatment with 14 nM of E7107 (14 nM (6 h)) were respectively shown.

## CCC(O)C(C)C1OC1CC(C)(O)/C=C/C=C(\C)C1OC(=O)CC(O)CCC(C)(O)C(OC(=O)N2CCN(C3CCCCCC3)CC2)/C=C/C1C (stereo not drawn) [E7107, (8E,12E,14E)-7-((4-Cycloheptylpiperazin-1-yl)carbonyl)oxy-3,6,16,21-tetrahydroxy-6,10,12,16,20-pentamethyl-18,19-epoxytricosa-8,12,14-trien-11-olide]
  ADPRHL2 mRNA expression level (223097_at): 0.23
  ANGEL2 mRNA expression level (221825_at): 0.22
  ARMC8 mRNA expression level (203486_s_at): 0.20
  ATP2A2 mRNA expression level (212361_s_at): 0.24
  ATP2B1 mRNA expression level (212930_at): 0.20
  ATP6V0A2 mRNA expression level (205704_s_at): 0.17
  BPTF mRNA expression level (232909_s_at): 0.20
  C1orf63 mRNA expression level (209006_s_at): 0.15
  C1orf79 mRNA expression level (223774_at): 0.16
  C1orf82 mRNA expression level (222893_s_at): 0.20
  C5orf28 mRNA expression level (219029_at): 0.20
  C6orf136 mRNA expression level (227455_at): 0.23
  C7orf23 mRNA expression level (204215_at): 0.12
  C7orf36 mRNA expression level (223433_at): 0.16
  C7orf49 mRNA expression level (220949_s_at): 0.20
  C12orf32 mRNA expression level (225837_at): 0.19
  C15orf40 mRNA expression level (1552310_at): 0.17
  C17orf80 mRNA expression level (223351_at): 0.22
  C20orf112 mRNA expression level (225224_at): 0.24
  CARD10 mRNA expression level (210026_s_at): 0.23
  CASC5 mRNA expression level (228323_at): 0.24
  CCDC14 mRNA expression level (225017_at): 0.21
  CCNE2 mRNA expression level (205034_at): 0.22
  CDC6 mRNA expression level (203967_at): 0.13
  CDC7 mRNA expression level (204510_at): 0.18
  CDNA FLJ34214 fis, clone FCBBF3021807 mRNA expression level (227087_at): 0.24
  CLDND1 mRNA expression level (208925_at): 0.16
  CLIP1 mRNA expression level (201975_at): 0.24
  DAPK1 mRNA expression level (203139_at): 0.09
  DNAJC16 mRNA expression level (212908_at): 0.24
  E2F7 mRNA expression level (228033_at): 0.22
  EHBP1 mRNA expression level (212653_s_at): 0.16
  ELL3 mRNA expression level (219518_s_at): 0.24
  ERCC3 mRNA expression level (202176_at): 0.25
  EVI1 mRNA expression level (226420_at): 0.17
  FAM86C mRNA expression level (65585_at): 0.19
  FANCL mRNA expression level (218397_at): 0.15
  FBXL5 mRNA expression level (209004_s_at): 0.19
  FCHO2 mRNA expression level (228220_at): 0.24
  FGF19 mRNA expression level (223761_at): 0.10
  FKSG44 mRNA expression level (227964_at): 0.11
  FLJ20628 mRNA expression level (221229_s_at): 0.16
  FRY mRNA expression level (204072_s_at): 0.23
  Full-length cDNA clone CS0DL007YI24 of B cells (Ramos cell line) mRNA expression level (226648_at): 0.22
  GRHL1 mRNA expression level (222830_at): 0.24
  HDAC4 mRNA expression level (204225_at): 0.21
  INTS7 mRNA expression level (222250_s_at): 0.24
  IREB2 mRNA expression level (225892_at): 0.12
  IXL mRNA expression level (225708_at): 0.20
  JAGN1 mRNA expression level (223104_at): 0.15
  JUB mRNA expression level (225806_at): 0.25
  KCNE3 mRNA expression level (227647_at): 0.20
  KIAA0323 mRNA expression level (212355_at): 0.23
  KIAA0776 mRNA expression level (212633_at): 0.18
  KIAA0859 mRNA expression level (212405_s_at): 0.17
  KIF2C mRNA expression level (211519_s_at): 0.20
  KIF21A mRNA expression level (226003_at): 0.18
  KIN mRNA expression level (205664_at): 0.22
  KLHL12 mRNA expression level (225068_at): 0.20
  LIPG mRNA expression level (219181_at): 0.21
  LOC51315 mRNA expression level (218303_x_at): 0.11
  LOC124512 mRNA expression level (225808_at): 0.15
  MASTL mRNA expression level (228468_at): 0.23
  MCM10 mRNA expression level (220651_s_at): 0.11
  METTL3 mRNA expression level (209265_s_at): 0.24
  METTL4 mRNA expression level (219698_s_at): 0.22
  MKRN1 mRNA expression level (201285_at): 0.20
  MLL2 mRNA expression level (227527_at): 0.21
  MND1 mRNA expression level (223700_at): 0.17
  MYOHD1 mRNA expression level (225947_at): 0.20
  NCOA5 mRNA expression level (225145_at): 0.20
  NIN mRNA expression level (225921_at): 0.22
  NOC3L mRNA expression level (218889_at): 0.23
  NPC1 mRNA expression level (202679_at): 0.24
  NR2C1 mRNA expression level (204791_at): 0.15
  NUPL1 mRNA expression level (223984_s_at): 0.12
  NUPL2 mRNA expression level (204003_s_at): 0.21
  ORC5L mRNA expression level (204957_at): 0.23
  PAXIP1 mRNA expression level (212825_at): 0.23
  PCGF1 mRNA expression level (210023_s_at): 0.21
  PHACTR4 mRNA expression level (226823_at): 0.25
  PHF20L1 mRNA expression level (226942_at): 0.24
  PIK3C3 mRNA expression level (204297_at): 0.23
  PLEKHA5 mRNA expression level (220952_s_at): 0.16
  PMS1 mRNA expression level (213677_s_at): 0.22
  POLD3 mRNA expression level (212836_at): 0.16
  POLR3E mRNA expression level (222490_at): 0.18
  PPM1B mRNA expression level (209296_at): 0.24
  PPWD1 mRNA expression level (213483_at): 0.21
  RAD54B mRNA expression level (219494_at): 0.18
  RBBP6 mRNA expression level (212783_at): 0.17
  RBM17 mRNA expression level (224780_at): 0.21
  RBMS1 mRNA expression level (209868_s_at): 0.17
  REPS1 mRNA expression level (224366_s_at): 0.22
  RFC4 mRNA expression level (204023_at): 0.13
  RIF1 mRNA expression level (226821_at): 0.13
  RPS6KC1 mRNA expression level (218909_at): 0.23
  SFXN1 mRNA expression level (230069_at): 0.17
  SHPRH mRNA expression level (226366_at): 0.19
  SLC17A5 mRNA expression level (223441_at): 0.24
  SLC25A19 mRNA expression level (223222_at): 0.25
  SLC37A1 mRNA expression level (218928_s_at): 0.22
  SMEK2 mRNA expression level (226230_at): 0.19
  SMUG1 mRNA expression level (218685_s_at): 0.24
  STAMBPL1 mRNA expression level (227606_s_at): 0.19
  STXBP3 mRNA expression level (203310_at): 0.19
  SYTL2 mRNA expression level (232914_s_at): 0.18
  TAF4 mRNA expression level (213090_s_at): 0.21
  TMEM177 mRNA expression level (218897_at): 0.24
  TNS3 mRNA expression level (217853_at): 0.20
  TRIM31 mRNA expression level (210159_s_at): 0.25
  TRIP4 mRNA expression level (203732_at): 0.21
  TSEN2 mRNA expression level (219581_at): 0.13
  TTC4 mRNA expression level (46167_at): 0.22
  TUBGCP3 mRNA expression level (203690_at): 0.16
  Transcribed locus mRNA expression level (230098_at): 0.17
  Transcribed locus mRNA expression level (230177_at): 0.18
  Transcribed locus mRNA expression level (235609_at): 0.21
  Transcribed locus, moderately similar to XP_518244.1 mRNA expression level (235046_at): 0.11
  Transcribed locus, strongly similar to NP_002194.1 integrin alpha 2 precursor mRNA expression level (227314_at): 0.24
  Transcribed locus, strongly similar to NP_689873.1 mRNA expression level (228638_at): 0.16
  UNC50 mRNA expression level (203583_at): 0.10
  WBP4 mRNA expression level (203598_s_at): 0.17
  WDR26 mRNA expression level (218107_at): 0.24
  WDR67 mRNA expression level (214061_at): 0.09
  ZC3HAV1L mRNA expression level (228280_at): 0.23
  ZCCHC6 mRNA expression level (220933_s_at): 0.18
  ZKSCAN1 mRNA expression level (214670_at): 0.21
  ZMIZ1 mRNA expression level (212124_at): 0.16
  ZNF518 mRNA expression level (204291_at): 0.18
  mRNA expression level, probeset 228106_at (gene name not given): 0.21
  mRNA expression level, probeset 235436_at (gene name not given): 0.21
